Experimental data taken from ChEMBL document CHEMBL5365473, “Novel Sulfonylurea-Based NLRP3 Inflammasome Inhibitor for Efficient Treatment of Nonalcoholic Steatohepatitis, Endotoxic Shock, and Colitis” (J Med Chem, 2023).
Activity calls are given as the source filed them. The rule behind the calls is not given here.

Legend:
Mus musculus [1] = experiment: Antiinflammatory activity against MCD diet-induced NASH C57BL/6 mouse model assessed as reduction in balloon dilatation in liver at 40 mg/kg, po administered via gavage for 5 weeks by Sirius red staining based analysis; assay type: functional, organism-based
Mus musculus [2] = experiment: Antiinflammatory activity against LPS-induced lethal septic shock C57BL/6 mouse model assessed as reduction in serum IL-1 beta level at 20 to 40 mg/kg, ip administered for 1 hr prior to LPS challenge and measured after 2.5 hrs by ELISA; assay type: functional, organism-based; conditions: dose 20-40 mg/kg, time 3.5 hrs
Hepatocyte = experiment: Cytotoxicity against mouse primary hepatic cells assessed as reduction in cell viability at 200 uM measured after 24 hrs by CCK8 assay; assay type: toxicity, cell-based; conditions: hepatocytes
Mus musculus [3] = experiment: Antiinflammatory activity against LPS-induced lethal septic shock C57BL/6 mouse model assessed as increase in animal's survival rate at 40 mg/kg, ip administered for 1 hr prior to LPS challenge and measured for 72 hrs; assay type: functional; conditions: time 73 hrs
Mus musculus [4] = experiment: Antiinflammatory activity against MCD diet-induced NASH C57BL/6 mouse model assessed as reduction in TUNEL-positive hepatic cells at 40 mg/kg, po administered via gavage for 5 weeks by TUNEL assay; assay type: functional, organism-based
Mus musculus [5] = experiment: Antiinflammatory activity against MCD diet-induced NASH C57BL/6 mouse model assessed as reduction in liver steatosis at 40 mg/kg, po administered via gavage for 5 weeks by Masson's trichrome staining based analysis; assay type: functional, organism-based
Mus musculus [6] = experiment: Antiinflammatory activity against MCD diet-induced NASH C57BL/6 mouse model assessed as reduction in liver fibrosis at 40 mg/kg, po administered via gavage for 5 weeks by Masson's trichrome staining based analysis; assay type: functional, organism-based
[7] = Effect on immune cell numbers in MCS diet-fed C57BL/6 mouse assessed as effect on F4/80 expression at 40 mg/kg, po administered via gavage for 5 weeks by immunofluorescence staining based analysis; assay type: toxicity, organism-based; conditions: in vivo, 840 h
Mus musculus [8] = experiment: Antiinflammatory activity against MCD diet-induced NASH C57BL/6 mouse model assessed as reduction in liver steatosis at 40 mg/kg, po administered via gavage for 5 weeks by H and E staining based analysis; assay type: functional, organism-based
Mus musculus [9] = experiment: Antiinflammatory activity against DSS-induced ulcerative colitis C57BL/6 mouse assessed as reduction in massive loss of goblet cells in colon at 10 mg/kg, ip administered for 9 days and measured on day 10 by H and E staining based analysis; assay type: functional, organism-based; conditions: time 10.0 day
[10] = target: NACHT, LRR and PYD domains-containing protein 3 (Mus musculus) (UniProt Q8R4B8); conditions: J774.A1, dose 30.0 nM, time 3.0 hrs
Sequence of NACHT, LRR and PYD domains-containing protein 3 (Mus musculus) (Q8R4B8 whole entry, the tested form may be a part): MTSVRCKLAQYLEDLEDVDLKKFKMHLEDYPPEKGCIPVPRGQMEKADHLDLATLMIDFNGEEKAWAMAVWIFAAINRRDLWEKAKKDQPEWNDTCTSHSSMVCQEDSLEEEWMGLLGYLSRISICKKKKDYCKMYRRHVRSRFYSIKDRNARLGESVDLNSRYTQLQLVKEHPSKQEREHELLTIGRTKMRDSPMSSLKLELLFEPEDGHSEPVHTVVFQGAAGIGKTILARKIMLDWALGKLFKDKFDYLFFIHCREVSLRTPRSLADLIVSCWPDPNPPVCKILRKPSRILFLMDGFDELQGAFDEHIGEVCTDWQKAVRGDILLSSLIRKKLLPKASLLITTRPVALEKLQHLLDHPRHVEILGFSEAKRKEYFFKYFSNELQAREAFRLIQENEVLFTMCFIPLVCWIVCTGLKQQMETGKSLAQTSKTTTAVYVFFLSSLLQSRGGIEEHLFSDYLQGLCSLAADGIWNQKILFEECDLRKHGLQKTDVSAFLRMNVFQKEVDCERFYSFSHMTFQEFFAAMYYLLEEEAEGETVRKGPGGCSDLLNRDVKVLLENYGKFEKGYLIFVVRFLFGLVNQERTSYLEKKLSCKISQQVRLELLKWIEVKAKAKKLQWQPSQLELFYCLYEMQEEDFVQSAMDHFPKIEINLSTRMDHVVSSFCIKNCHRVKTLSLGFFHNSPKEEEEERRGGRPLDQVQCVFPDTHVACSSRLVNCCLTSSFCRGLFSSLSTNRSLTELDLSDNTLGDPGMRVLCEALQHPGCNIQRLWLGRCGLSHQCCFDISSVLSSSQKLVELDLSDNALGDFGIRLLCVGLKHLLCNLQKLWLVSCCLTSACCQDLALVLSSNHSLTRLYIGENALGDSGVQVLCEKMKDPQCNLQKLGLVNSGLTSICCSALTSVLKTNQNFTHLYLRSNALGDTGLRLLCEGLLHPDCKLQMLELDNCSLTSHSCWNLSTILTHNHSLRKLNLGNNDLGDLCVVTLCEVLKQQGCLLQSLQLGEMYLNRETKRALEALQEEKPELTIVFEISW

Mus musculus [11] = experiment: Antiinflammatory activity against LPS-induced lethal septic shock C57BL/6 mouse model assessed as effect on TNF-alpha level at 40 mg/kg, ip administered for 1 hr prior to LPS challenge and measured after 2.5 hrs by ELISA; assay type: functional, organism-based; conditions: time 3.5 hrs
Mus musculus [12] = experiment: Antiinflammatory activity against MCD diet-induced NASH C57BL/6 mouse model assessed as reduction in balloon dilatation in liver at 40 mg/kg, po administered via gavage for 5 weeks by Masson's trichrome staining based analysis; assay type: functional, organism-based
Mus musculus [13] = experiment: Antiinflammatory activity against MCD diet-induced NASH C57BL/6 mouse model assessed as improvement in liver morphology at 40 mg/kg, po administered via gavage for 5 weeks by H and E staining based analysis; assay type: functional, organism-based
Mus musculus [14] = experiment: Antiinflammatory activity against DSS-induced ulcerative colitis C57BL/6 mouse assessed as reduction in crypt necrosis in colon at 10 mg/kg, ip administered for 9 days and measured on day 10 by H and E staining based analysis; assay type: functional, organism-based; conditions: time 10.0 day
Mus musculus [15] = experiment: Antiinflammatory activity against DSS-induced ulcerative colitis C57BL/6 mouse assessed as reduction in inflammatory cells infiltration in lamina propria in colon at 10 mg/kg, ip administered for 9 days and measured on day 10 by H and E staining based analysis; assay type: functional, organism-based; conditions: time 10.0 day
[16] = target: NACHT, LRR and PYD domains-containing protein 3 (Mus musculus) (UniProt Q8R4B8); conditions: J774.A1, dose 30.0 nM, time 3.0 hrs; remark: listed apart in the source
[17] = target: NACHT, LRR and PYD domains-containing protein 3 (Mus musculus, UniProt Q8R4B8); experiment: Inhibition of NLRP3 inflammasome in mouse […] cells assessed as inhibition of LPS/ATP-induced IL-1 beta secretion primed with LPS for 4.5 hs followed by incubation with compound for 30 mins and later stimulation with ATP for 30 mins by ELISA; assay type: cell-based, J774.A1
Sequence of NACHT, LRR and PYD domains-containing protein 3 (Q8R4B8 whole entry, the tested form may be a part): as above

Mus musculus [18] = experiment: Antiinflammatory activity against MCD diet-induced NASH C57BL/6 mouse model assessed as reduction in immune cell infiltration by measuring reduction in F4/80-positive hepatic cells at 40 mg/kg, po administered via gavage for 5 weeks by immunofluorescence staining based analysis; assay type: functional, organism-based
Mus musculus [19] = experiment: Antiinflammatory activity against DSS-induced ulcerative colitis C57BL/6 mouse assessed as reduction in colon length shortening at 10 mg/kg, ip administered for 9 days and measured on day 10; assay type: functional, organism-based; conditions: time 10.0 day
Mus musculus [20] = experiment: Antiinflammatory activity against LPS-induced lethal septic shock C57BL/6 mouse model assessed as increase in animal's survival rate at 20 mg/kg, ip administered for 1 hr prior to LPS challenge and measured for 72 hrs; assay type: functional; conditions: time 73 hrs
Mus musculus [21] = experiment: Antiinflammatory activity against DSS-induced ulcerative colitis C57BL/6 mouse assessed as reduction in body weight loss at 10 mg/kg, ip administered for 9 days and measured daily; assay type: functional, organism-based; conditions: time 9.0 day
Mus musculus [22] = experiment: Antiinflammatory activity against MCD diet-induced NASH C57BL/6 mouse model assessed as improvement in liver morphology at 40 mg/kg, po administered via gavage for 5 weeks by Masson's trichrome staining based analysis; assay type: functional, organism-based
[23] = Half life in C57BL/6 mouse at 20 mg/kg, po by LC-MS/MS analysis; assay type: ADME, organism-based; conditions: in vivo
Mus musculus [24] = experiment: Antiinflammatory activity against MCD diet-induced NASH C57BL/6 mouse model assessed as reduction in immune cell infiltration by measuring reduction in CD45-positive hepatic cells at 40 mg/kg, po administered via gavage for 5 weeks by immunofluorescence staining based analysis; assay type: functional, organism-based
Mus musculus [25] = experiment: Antiinflammatory activity against MCD diet-induced NASH C57BL/6 mouse model assessed as reduction in liver fibrosis at 40 mg/kg, po administered via gavage for 5 weeks by Sirius red staining based analysis; assay type: functional, organism-based
Mus musculus [26] = experiment: Antiinflammatory activity against MCD diet-induced NASH C57BL/6 mouse model assessed as improvement in liver morphology at 40 mg/kg, po administered via gavage for 5 weeks by Sirius red staining based analysis; assay type: functional, organism-based
[27] = Effect on immune cell numbers in MCS diet-fed C57BL/6 mouse assessed as effect on CD45 expression at 40 mg/kg, po administered via gavage for 5 weeks by immunofluorescence staining based analysis; assay type: toxicity, organism-based; conditions: in vivo, 840 h
[28] = Oral bioavailability in C57BL/6 mouse at 20 mg/kg by LC-MS/MS analysis; assay type: ADME, organism-based; conditions: in vivo
Mus musculus [29] = experiment: Antiinflammatory activity against DSS-induced ulcerative colitis C57BL/6 mouse assessed as reduction in mucosal barrier disruption in colon at 10 mg/kg, ip administered for 9 days and measured on day 10 by H and E staining based analysis; assay type: functional, organism-based; conditions: time 10.0 day
Mus musculus [30] = experiment: Antiinflammatory activity against MCD diet-induced NASH C57BL/6 mouse model assessed as reduction in liver fibrosis at 40 mg/kg, po administered via gavage for 5 weeks by H and E staining based analysis; assay type: functional, organism-based
Mus musculus [31] = experiment: Antiinflammatory activity against MCD diet-induced NASH C57BL/6 mouse model assessed as reduction in liver steatosis at 40 mg/kg, po administered via gavage for 5 weeks by Sirius red staining based analysis; assay type: functional, organism-based
Mus musculus [32] = experiment: Antiinflammatory activity against MCD diet-induced NASH C57BL/6 mouse model assessed as reduction in balloon dilatation in liver at 40 mg/kg, po administered via gavage for 5 weeks by H and E staining based analysis; assay type: functional, organism-based
L02 = experiment: Cytotoxicity against human HL7702 cells assessed as reduction in cell viability at 200 uM measured after 24 hrs by CCK8 assay; assay type: toxicity, cell-based; conditions: l02, 24 h
Mus musculus [33] = experiment: Antiinflammatory activity against MCD diet-induced NASH C57BL/6 mouse model assessed as protection against MCD diet-induced increase in liver to body weight ratio at 40 mg/kg, po administered via gavage for 5 weeks; assay type: functional, organism-based

Compound: CC(C)(O)c1coc(S(=O)(=O)NC(=O)Nc2c3c(cc4c2CCC4)CCC3)c1
- Activity (Mus musculus [1]): Active
- Activity (Mus musculus [2]): Active
- Activity (Hepatocyte): Toxic
- survival at 40 mg/kg (Mus musculus [3]): 60%
- Activity (Mus musculus [4]): Active
- Activity (Mus musculus [5]): Active
- Activity (Mus musculus [6]): Active
- Activity [7]: Non-Toxic
- Activity (Mus musculus [8]): Active
- Activity (Mus musculus [9]): Active
- inhibition [10]: Active
- Activity (Mus musculus [11]): inactive
- Activity (Mus musculus [12]): Active
- Activity (Mus musculus [13]): Active
- Activity (Mus musculus [14]): Active
- Activity (Mus musculus [15]): Active
- inhibition [16]: Active
- IC50 [17]: 14 nM
- Activity (Mus musculus [18]): inactive
- Activity (Mus musculus [19]): Active
- survival at 20 mg/kg (Mus musculus [20]): 20%
- Activity (Mus musculus [21]): Active
- Activity (Mus musculus [22]): Active
- half-life [23]: 1.32 h
- Activity (Mus musculus [24]): inactive
- Activity (Mus musculus [25]): Active
- Activity (Mus musculus [26]): Active
- Activity [27]: Non-Toxic
- bioavailability [28]: 85.2%
- Activity (Mus musculus [29]): Active
- Activity (Mus musculus [30]): Active
- Activity (Mus musculus [31]): Active
- Activity (Mus musculus [32]): Active
- Activity (L02): Toxic
- Activity (Mus musculus [33]): Active

Compound: CCN(C)Cc1ccc(S(=O)(=O)NC(=O)Nc2c3c(cc4c2CCC4)CCC3)cc1
- IC50 [17]: 63 nM

Compound: O=C(Nc1c2c(cc3c1CCC3)CCC2)NS(=O)(=O)c1ccc(CN2CCOCC2)cc1
- IC50 [17]: 3690 nM

Compound: CCCN(C)Cc1ccc(S(=O)(=O)NC(=O)Nc2c3c(cc4c2CCC4)CCC3)cc1
- IC50 [17]: > 10000 nM

Compound: Cc1cc(C)cc(NC(=O)NS(=O)(=O)c2ccc(CN(C)C)cc2)c1
- IC50 [17]: > 10000 nM

Compound: CC(C)(O)c1coc(S(=O)(=O)NC(=O)Nc2c3c(c(-c4ccc(C=O)cc4)c4c2CCC4)CCC3)c1
- IC50 [17]: > 5000 nM

Compound: COC(=O)c1ccc(-c2c3c(c(NC(=O)NS(=O)(=O)c4cc(C(C)(C)O)co4)c4c2CCC4)CCC3)cc1
- IC50 [17]: 1120 nM

Compound: CN(C)c1ccc(-c2c3c(c(NC(=O)NS(=O)(=O)c4cc(C(C)(C)O)co4)c4c2CCC4)CCC3)cc1
- IC50 [17]: > 5000 nM

Compound: COC1CN(Cc2cccc(S(=O)(=O)NC(=O)Nc3c4c(cc5c3CCC5)CCC4)c2)C1
- IC50 [17]: 5000 nM

Compound: CN(C)Cc1cccc(S(=O)(=O)NC(=O)Nc2c3c(cc4c2CCC4)CCC3)c1
- IC50 [17]: 168 nM

Compound: CCCCN(C)Cc1ccc(S(=O)(=O)NC(=O)Nc2c3c(cc4c2CCC4)CCC3)cc1
- IC50 [17]: > 10000 nM

Compound: CN1CCN(Cc2ccc(S(=O)(=O)NC(=O)Nc3c4c(cc5c3CCC5)CCC4)cc2)CC1
- IC50 [17]: > 10000 nM

Compound: CN(C)Cc1ccc(S(=O)(=O)NC(=O)Nc2c(-c3ccccc3)cccc2-c2ccccc2)cc1
- IC50 [17]: 1480 nM

Compound: CC(C)c1cccc(C(C)C)c1NC(=O)NS(=O)(=O)c1ccc(CN(C)C)cc1
- IC50 [17]: 138 nM

Compound: CN(C)Cc1cc(S(=O)(=O)NC(=O)Nc2c3c(cc4c2CCC4)CCC3)ccn1
- IC50 [17]: 1680 nM

Compound: CNC(=O)c1cccc(S(=O)(=O)NC(=O)Nc2c3c(cc4c2CCC4)CCC3)c1
- IC50 [17]: 3720 nM
